Measurements reported in patent publication US8309073B2, “Combination of probiotics” (Valio Ltd., priority 2001, dated 2012).
“Also recorded” adds a separate entry of the source.

Tests used:
[1] = test system: intestinal mucus; assay: Adhesion of the probiotic strains to intestinal mucus; assay type: binding; settings: for Adhesion % (+Std.): adhesion to intestinal mucus
Method: Adhesion of the probiotic strains to mucus was tested in accordance with Ouweland et al. (Ouwehand, A. C., Kirjavainen, P. V., Grönlund, M. -M., Isolauri, E., and Salminen, S. J. 1999. Adhesion of probiotic micro-organisms to intestinal mucus. Int. Dairy J. 9:623-630). LGG and probionic bacterium PJS adhered excellently to the intestinal mucus, Bbi99 moderately and LC705 weakly. Adhesion is a prerequisite for the microbe to produce beneficial effects in the intestines. On the other hand, LC705 is known to adhere well to epithet cells, similarly as LGG (Lehto, E. and Salminen S. 1997. Adhesion of two lactobacillus strains, one lactococcus strain and one propionibacterium strain to cultured human intestinal CaCO-2 cell lines. Bioscience Microflora 16: 13-17). This property is beneficial when there is an imbalance in the intestine and the protective mucus has been weakened.

[2] = Viability in pH-adjusted MRS broths; assay type: physicochemical; settings: for Cell content pH 2: MRS broth adjusted with lactic acid to pH 2, 37° C.; for Cell content pH 2 / Cell content pH 3 / Cell content pH 4: 3 hours; for Cell content pH 3: MRS broth adjusted with lactic acid to pH 3, 37° C.; for Cell content pH 4: MRS broth adjusted with lactic acid to pH 4, 37° C.; for Initial content: before cultivation in pH-adjusted MRS broth
Method: The strains were tested at different pH values in MRS broths the pH of which had been adjusted with lactic acid to values pH 4, pH 3 and pH 2. The strain to be studied (fresh culture) was inoculated into a pH broth of 1% and grown at 37° C. for 3 hours, after which the content of live cells was determined using an agar suitable for the strain (see Table 5). The strains maintained their viability in the 3-hour process in a pH value of 3 excellently. […] In the test the bacteria were not protected by components carried by food (such as fat) and therefore they may be assumed to preserve even better when consumed in vivo together with food.

[3] = Bile salt tolerance in MRS broths with Oxgal bile salt; assay type: physicochemical; settings: for Cell content Bile salt 0.3%: MRS broth with 0.3% Oxgal bile salt; for Cell content Bile salt 0.3% / Cell content Bile salt 0.5%: 3 hours, 37° C.; for Cell content Bile salt 0.5%: MRS broth with 0.5% Oxgal bile salt; for Initial content: before cultivation in bile salt MRS broth
Method: With regard to bile salt tolerance, the strains were tested in MRS broths that contained 0.3% and 0.5% of Oxgal (Sigma) bile salt by inoculating 1% of the fresh culture into the bile salt MRS broth to be studied. The strains were cultivated in the broths for 3 hours at 37° C., after which the content of live cells was determined using an agar suitable for the strain (see Table 5). All strains survived the treatment excellently.

[4] = test system: intestinal mucus; settings: prior-art description of the strain; cited from earlier work
[5] = test system: cultured human intestinal CaCO-2 cell lines; settings: literature / prior-art description; cited from earlier work
[6] = prior-art description of the strain; cited from earlier work

| Substance | adhesion to the intestinal mucus [1] | Adhesion % (+Std.) [1] [%] | Cell content pH 2 [2] | Cell content pH 3 [2] | Cell content pH 4 [2] | Initial content [2] | Cell content Bile salt 0.3% [3] | Cell content Bile salt 0.5% [3] | Initial content [3] | adhesion to mucus (strain description) [4] | adhesion to epithelial cells [5] | viability in low pH values and high bile acid contents [6] | viability in pH 2 ([2]; pH 2, 3 hours) |
| --- | --- | --- | --- | --- | --- | --- | --- | --- | --- | --- | --- | --- | --- |
| Bifidobacterium infantis Bbi99 (DSM 13692) | moderately | 4.6 ± 2.3 | <10 cfu/ml | <10 cfu/ml | 2 × 10^7 cfu/ml | 1 × 10^7 cfu/ml | 1 × 10^7 cfu/ml | 1 × 10^7 cfu/ml | 3 × 10^7 cfu/ml |  |  |  |  |
| Lactobacillus rhamnosus GG (ATCC 53103) [LGG] | excellently | 26.3 ± 1.3 | <10^2 cfu/ml | 1 × 10^7 cfu/ml | 2 × 10^7 cfu/ml | 1 × 10^7 cfu/ml | 2 × 10^7 cfu/ml | 9 × 10^6 cfu/ml | 1 × 10^7 cfu/ml | excellent | excellent; also recorded: adhere well | survives even lower pH values as well as high bile acid contents |  |
| Lactobacillus rhamnosus LC705 (DSM 7061) | weakly | 0.7 ± 0.2 | <10^2 cfu/ml | 4 × 10^7 cfu/ml | 2 × 10^8 cfu/ml | 6 × 10^7 cfu/ml | 2 × 10^7 cfu/ml | 1 × 10^7 cfu/ml | 1 × 10^7 cfu/ml | weakly | moderately; also recorded: adhere well | good |  |
| Propionibacterium freudenreichii ssp. shermanii JS (DSM 7067) [PJS] | excellently | 24.9 ± 2.2 | 1 × 10^4 cfu/ml | 3 × 10^7 cfu/ml | 9 × 10^7 cfu/ml | 1 × 10^8 cfu/ml | 6 × 10^7 cfu/ml | 5 × 10^7 cfu/ml | 6 × 10^7 cfu/ml |  |  | excellent | remained viable |
